Reference: patent US4738969A, “Substituted aminopyridones and aminoquinolones having histamine H2 -receptor blocking activity” (Smith Kline & French Laboratories Limited, priority 1983, dated 1988)

Tests used:
[1] = tested on: histamine H2 -receptors; assay: inhibition of histamine-stimulated secretion of gastric acid from the lumen-perfused stomachs of rats anaesthetised with urethane (lumen-perfused rat test); assay type: in vivo; settings: times more active than the reference compound
Description: These are actions of histamine which, according to Ash and Schild, Brit. J. Pharmac. Chemother. 27 247 (1966), are not mediated by histamine H1 -receptors.
(§1) The measurement of inhibition of histamine-stimulated secretion of gastric acid from the lumen-perfused stomachs of rats anaesthetised with urethane, and the measurement of inhibition of histamine-induced tachycardia in the isolated guinea pig right atrium, are detailed in U.S. Pat. No. 4,385,058.

[2] = tested on: histamine H2 -receptors; assay: inhibition of histamine-induced tachycardia in the isolated guinea pig right atrium (guinea pig atrium test); assay type: cell-based; settings: times more active than the reference compound
Description: as §1

[3] = tested on: histamine H2 -receptors; assay: inhibition of histamine-stimulated acid secretion in the Heidenhain Pouch Dog; assay type: in vivo; settings: intravenous administration, dose levels adjusted to produce similar peak responses

SMILES: O=c1cc[nH]c(NCCCOc2cccc(CN3CCCCC3)c2)c1 [Example 1, 2-[3-[3-(Piperidinomethyl)phenoxy]propylaminc]-pyrid-4-one]
- activity relative to 2-[2-(5-methylimidazol-4-ylmethylthio)ethylamino]pyrid-4-one (Example 16 of U.S. Pat. No. 3,932,644), lumen-perfused rat test [1]: over 100 times
- activity relative to 2-[2-(5-methylimidazol-4-ylmethylthio)ethylamino]pyrid-4-one (Example 16 of U.S. Pat. No. 3,932,644), guinea pig atrium test [2]: over 100 times
- duration of activity compared with cimetidine [3]: longer duration of activity than cimetidine
